# Test results as given in US12589170B2, “Devices and methods for radiopharmaceutical synthesis” (VANDERBILT UNIVERSITY, priority 2019, dated 2026).
# Assays:
# [1] = tested on: rat brain; test: microPET imaging of rat brain with [18F]fallypride produced in the microfluidic chip; type: in vivo; settings: dose of about 300 μCi, microPET for about 2 hours
# Excerpt: To further verify the utility of the resulting [^18F]fallypride, we produced (using the integrated microfluidic chip) a dose of about 300 μCi with about 19.55 Ci/μmol (723.35 GBq/μmol) of specific activity and about 98.62% of radiochemical purity, and obtained PET data from a rat brain. The time point used to calculate the specific activity was at the end of production, namely the time when the purified [^18F]fallypride was retrieved from chip. The rat was brought to the imaging lab to habituate about 3 hours prior to imaging. About 0.1 ml purified [^18F] fallypride was filtered through an about 0.45 μm filter (Millex-HV) and about 0.9 ml saline was added to formulate the PET probe used for rat injection. […] The accumulation and pharmacokinetics of [^18F]fallypride were as expected when evaluated in the rat brain.
# [2] = Stability of final product at room temperature examined by radio-HPLC; type: physicochemical; settings: duration up to about 4 hours
# Protocol: A Hitachi HPLC (LaChrom Elite, Pump L-2130) equipped with a wavelength UV detector (L-2400, 254 nm) and inline radiation detector (Inline Carroll & Ramsey) was used to evaluate radiochemical purity. A C18 column (Phenomenex Gemini, particle size about 10 μm, 150×4.6 mm) was used. For the mobile phase, acetonitrile (referred as A1) mixed with water containing about 0.1% trifluoroacetic acid (TFA) was used with gradient as following: 0% A1/100% TFA for about 0-2 min, 100% A1/0% TFA for about 8-10 min. The flow rate was constantly set as about 1 mL/min. Moreover, radiochemical purity was also examined by radio thin layer chromatography (TLC) using ITLC (instant TLC) paper strips (Varian). […] The value of radioactivity was measured using a calibrated dose calibrator (Capintec, CRC-25PET). The radiochemical yields were evaluated as a percentage of total activity of ^68GaCl3 initially delivered from the generator. Unless specified elsewhere, all efficiencies are calculated based on decay-corrected values.
# A radio-TLC chromatogram of synthesized product is shown in FIG. 6 and the ^68Ga-labelled peptide has an approximate retardation factor of about 0.8-1.0. Using the microfluidic device, the incorporation efficiency of 100% can be consistently achieved as determined by radio HPLC chromatogram (FIG. 7B). […]
accumulation and pharmacokinetics in the rat brain [1],Structure (SMILES),"stability of final product (retention time, product purity by radio-HPLC) [2]"
as expected,C=CCN1CCC[C@H]1CNC(=O)c1cc(CCC[18F])cc(OC)c1OC [[^18F]fallypride],–
–,O=C([O-])CN(CCN(CC(=O)[O-])Cc1cc(CCC(=O)NCCCCCC(=O)NCCCC[C@H](NC(=O)N[C@@H](CCC(=O)O)C(=O)O)C(=O)O)ccc1[O-])Cc1cc(CCC(=O)O)ccc1[O-].[68Ga+3].[OH3+] [^68Ga-PSMA-11],no discrepancy on retention time or product purity was observed
